Assay results as given in US10632106B2, “Methods of cancer treatment with 2-(1′H-Indole-3′-carbonyl)-thiazole-4-carboxylic acid methyl ester” (Ariagen, Inc., priority 2009, dated 2020).

Assay: Effects of oral water administration on ITE dosed mice
Type: in vivo
Set-up: key to feces appearance: Moderate; Dry
Experimental: Oral injection of water was initiated at the same day i.p. administration of ITE was started. Daily oral gavage at 10 or 20 ml/kg was performed immediately following daily i.p. injection of ITE or DMSO continuously for the entire duration of the study. Both oral and i.p. injection were accidentally skipped at day 14 due to a mistake of the experimenter(s) and all of the other dosing were executed normally. Bodyweights (individual), food consumed (in group), feces weights (in group), and feces appearance (in group) were recorded every two days. Death of animal(s) and approximate cause of death etc. were also recorded.

[1] = ITE-L 200 mg/kg i.p. + Water-0, day 4
[2] = ITE-L 200 mg/kg i.p. + Water-0, day 6
[3] = ITE-L 200 mg/kg i.p. + Water-0, day 8
[4] = ITE-L 200 mg/kg i.p. + Water-0, day 10
[5] = ITE-L 200 mg/kg i.p. + Water-0, day 12
[6] = ITE-L 200 mg/kg i.p. + Water-0, day 14
[7] = ITE-L 200 mg/kg i.p. + Water-0, day 18 (line r16)
[8] = ITE-L 200 mg/kg i.p. + Water-0, day 18 (line r17)
[9] = ITE-L 200 mg/kg i.p. + Water-0, day 20
[10] = ITE-L 200 mg/kg i.p. + Water-0, day 22
[11] = ITE-L 200 mg/kg i.p. + Water-0, day 24
[12] = ITE-L 200 mg/kg i.p. + Water-0, day 26
[13] = ITE-L 200 mg/kg i.p. + Water-0, day 28
[14] = ITE-L 200 mg/kg i.p. + Water-0, day 30
[15] = ITE-L 200 mg/kg i.p. + Water-0, day 32
[16] = ITE-L 200 mg/kg i.p. + Water-0, day 34
[17] = ITE-L 200 mg/kg i.p. + Water-0, day 36
[18] = ITE-L 200 mg/kg i.p. + Water-H 20 ml/kg, day 4
[19] = ITE-L 200 mg/kg i.p. + Water-H 20 ml/kg, day 6
[20] = ITE-L 200 mg/kg i.p. + Water-H 20 ml/kg, day 8
[21] = ITE-L 200 mg/kg i.p. + Water-H 20 ml/kg, day 10
[22] = ITE-L 200 mg/kg i.p. + Water-H 20 ml/kg, day 12
[23] = ITE-L 200 mg/kg i.p. + Water-H 20 ml/kg, day 14
[24] = ITE-L 200 mg/kg i.p. + Water-H 20 ml/kg, day 18 (line r16)
[25] = ITE-L 200 mg/kg i.p. + Water-H 20 ml/kg, day 18 (line r17)
[26] = ITE-L 200 mg/kg i.p. + Water-H 20 ml/kg, day 20
[27] = ITE-L 200 mg/kg i.p. + Water-H 20 ml/kg, day 22
[28] = ITE-L 200 mg/kg i.p. + Water-H 20 ml/kg, day 24
[29] = ITE-L 200 mg/kg i.p. + Water-H 20 ml/kg, day 26
[30] = ITE-L 200 mg/kg i.p. + Water-H 20 ml/kg, day 28
[31] = ITE-L 200 mg/kg i.p. + Water-H 20 ml/kg, day 30
[32] = ITE-L 200 mg/kg i.p. + Water-H 20 ml/kg, day 32
[33] = ITE-L 200 mg/kg i.p. + Water-H 20 ml/kg, day 34
[34] = ITE-L 200 mg/kg i.p. + Water-H 20 ml/kg, day 36
[35] = ITE-L 200 mg/kg i.p. + Water-L 10 ml/kg, day 4
[36] = ITE-L 200 mg/kg i.p. + Water-L 10 ml/kg, day 6
[37] = ITE-L 200 mg/kg i.p. + Water-L 10 ml/kg, day 8
[38] = ITE-L 200 mg/kg i.p. + Water-L 10 ml/kg, day 10
[39] = ITE-L 200 mg/kg i.p. + Water-L 10 ml/kg, day 12
[40] = ITE-L 200 mg/kg i.p. + Water-L 10 ml/kg, day 14
[41] = ITE-L 200 mg/kg i.p. + Water-L 10 ml/kg, day 18 (line r16)
[42] = ITE-L 200 mg/kg i.p. + Water-L 10 ml/kg, day 18 (line r17)
[43] = ITE-L 200 mg/kg i.p. + Water-L 10 ml/kg, day 20
[44] = ITE-L 200 mg/kg i.p. + Water-L 10 ml/kg, day 22
[45] = ITE-L 200 mg/kg i.p. + Water-L 10 ml/kg, day 24
[46] = ITE-L 200 mg/kg i.p. + Water-L 10 ml/kg, day 26
[47] = ITE-L 200 mg/kg i.p. + Water-L 10 ml/kg, day 28
[48] = ITE-L 200 mg/kg i.p. + Water-L 10 ml/kg, day 30
[49] = ITE-L 200 mg/kg i.p. + Water-L 10 ml/kg, day 32
[50] = ITE-L 200 mg/kg i.p. + Water-L 10 ml/kg, day 34
[51] = ITE-L 200 mg/kg i.p. + Water-L 10 ml/kg, day 36

COC(=O)c1csc(C(=O)c2c[nH]c3ccccc23)n1 [ITE, 2-(1′H-indole-3′-carbonyl)-thiazole-4-carboxylic acid methyl ester]
feces appearance [1]: M
number of mice that died [1]: 0
feces appearance [2]: M
number of mice that died [2]: 0
feces appearance [3]: D
number of mice that died [3]: 0
feces appearance [4]: D
number of mice that died [4]: 0
feces appearance [5]: D
number of mice that died [5]: 0
feces appearance [6]: D
number of mice that died [6]: 0
feces appearance [7]: D
number of mice that died [7]: 0
feces appearance [8]: D
number of mice that died [8]: 0
feces appearance [9]: D
number of mice that died [9]: 0
feces appearance [10]: D
number of mice that died [10]: 0
feces appearance [11]: D
number of mice that died [11]: 0
feces appearance [12]: D
number of mice that died [12]: 0
feces appearance [13]: D
number of mice that died [13]: 1
feces appearance [14]: D
number of mice that died [14]: 1
feces appearance [15]: D
number of mice that died [15]: 1
feces appearance [16]: D
number of mice that died [16]: 1
feces appearance [17]: D
number of mice that died [17]: 1
feces appearance [18]: M
number of mice that died [18]: 0
feces appearance [19]: M
number of mice that died [19]: 0
feces appearance [20]: D
number of mice that died [20]: 0
feces appearance [21]: D
number of mice that died [21]: 0
feces appearance [22]: D
number of mice that died [22]: 0
feces appearance [23]: D
number of mice that died [23]: 0
feces appearance [24]: D
number of mice that died [24]: 0
feces appearance [25]: D
number of mice that died [25]: 0
feces appearance [26]: D
number of mice that died [26]: 0
feces appearance [27]: D
number of mice that died [27]: 0
feces appearance [28]: D
number of mice that died [28]: 0
feces appearance [29]: D
number of mice that died [29]: 0
feces appearance [30]: M
number of mice that died [30]: 0
feces appearance [31]: M
number of mice that died [31]: 0
feces appearance [32]: M
number of mice that died [32]: 0
feces appearance [33]: M
number of mice that died [33]: 0
feces appearance [34]: M
number of mice that died [34]: 0
feces appearance [35]: M
number of mice that died [35]: 0
feces appearance [36]: M
number of mice that died [36]: 0
feces appearance [37]: D
number of mice that died [37]: 0
feces appearance [38]: D
number of mice that died [38]: 0
feces appearance [39]: D
number of mice that died [39]: 0
feces appearance [40]: D
number of mice that died [40]: 0
feces appearance [41]: D
number of mice that died [41]: 0
feces appearance [42]: D
number of mice that died [42]: 0
feces appearance [43]: D
number of mice that died [43]: 0
feces appearance [44]: D
number of mice that died [44]: 0
feces appearance [45]: D
number of mice that died [45]: 0
feces appearance [46]: D
number of mice that died [46]: 0
feces appearance [47]: M
number of mice that died [47]: 0
feces appearance [48]: M
number of mice that died [48]: 0
feces appearance [49]: M
number of mice that died [49]: 0
feces appearance [50]: M
number of mice that died [50]: 0
feces appearance [51]: M
number of mice that died [51]: 0
